Results from patent US9624182B2, “Compounds as lysophosphatidic acid receptor antagonists” (Amira Pharmaceuticals, Inc., priority 2009, dated 2017).

Target: T1, human LPA1 (Homo sapiens, UniProt Q92633)
T1 construct: the full-length cDNA for human LPA1 was obtained by PCR of the reverse transcription reaction; expressed in transfected cells
Assay: LPA1 calcium flux assay
Format: cell-based
Settings: CHO cells expressing human LPA1, stimulated with 10 nM LPA; read-out: HLPA1 Ca Flux IC50
Description: A 1.1 kb cDNA encoding the human LPA1 receptor was cloned from human lung. Human lung RNA (Clontech Laboratories, Inc. USA) was reverse transcribed using the RETROscript kit (Ambion, Inc.) and the full-length cDNA for human LPA1 was obtained by PCR of the reverse transcription reaction. The nucleotide sequence of the cloned human LPA1 was determined by sequencing and confirmed to be identical to the published human LPA1 sequence (An et al. Biochenm. Biophys. Res. Commun. 231:619 (1997). The cDNA was cloned into the pCDNA5/FRT expression plasmid and transfected in CHO cells using lipofectamine 2000 (Invitrogen Corp., USA). Clones stably expressing human LPA1 were selected using hygromycin and identified as cells that show Ca-influx in response to LPA.
Human LPA1 or LPA3 expressing CHO cells are seeded at 20,000-45,000 cells per well in a 96-well poly-D-lysine coated plate one or two days before the assay. Prior to the assay, the cells are washed once with PBS and then cultured in serum-free media overnight. On the day of the assay, a calcium indicator dye (Calcium 4, Molecular Devices) in assay buffer (HBSS with Ca^2+ and Mg^2+ and containing 20 mM Hepes and 0.3% fatty-acid free human serum albumin) is added to each well and incubation continued for 1 hour at 37° C. 10 μl of test compounds in 2.5% DMSO are added to the cells and incubation continued at room temperature for 30 minutes. Cells are the stimulated by the addition of 10 nM LPA and intracellular Ca^2+ measured using the Flexstation 3 (Molecular Devices). IC50s are determined using Graphpad prism analysis of drug titration curves.

T1 sequence (Q92633 whole entry): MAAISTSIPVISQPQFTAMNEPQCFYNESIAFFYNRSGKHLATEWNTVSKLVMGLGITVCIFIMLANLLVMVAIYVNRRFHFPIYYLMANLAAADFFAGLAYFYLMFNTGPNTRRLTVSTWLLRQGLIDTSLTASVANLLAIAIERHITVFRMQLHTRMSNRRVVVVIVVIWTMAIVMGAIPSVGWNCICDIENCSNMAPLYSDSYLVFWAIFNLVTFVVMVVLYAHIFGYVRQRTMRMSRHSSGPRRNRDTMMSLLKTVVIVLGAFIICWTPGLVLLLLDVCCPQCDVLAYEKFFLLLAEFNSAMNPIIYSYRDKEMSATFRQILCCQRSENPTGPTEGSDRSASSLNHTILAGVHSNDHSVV

| Structure (SMILES) | IC50 [nM] |
| --- | --- |
| Cc1noc(-c2ccc(-c3ccc(C4(C(=O)O)CC4)cc3)cc2)c1NC(C)C(O)Cc1ccccc1 (single isomer, unassigned) [Compound 1-283, 1-{4′-[4-(2-Hydroxy-1-methyl-3-phenyl-propylamino)-3-methyl-isoxazol-5-yl]-biphenyl-4-yl}-cyclopropanecarboxylic acid] | < 300 |
| Cc1noc(-c2ccc(-c3ccc(C4(C(=O)O)CC4)cc3)cc2)c1NC(=O)CC(C)C [Compound 1-3, 1-{4′-[3-Methyl-4-(3-methyl-butyrylamino)-isoxazol-5-yl]-biphenyl-4-yl}-cyclopropanecarboxylic acid] | 1000 to 50000 |
| Cc1noc(-c2ccc(-c3ccc(C4(C(=O)O)CC4)cc3)cc2)c1NC(=O)COc1ccccc1 [Compound 1-5, 1-{4′-[3-Methyl-4-(2-phenoxy-acetylamino)-isoxazol-5-yl]-biphenyl-4-yl}-cyclopropanecarboxylic acid] | 1000 to 50000 |
| Cc1noc(-c2ccc(-c3ccc(C4(C(=O)O)CC4)cc3)cc2)c1NC(=O)N(C)C(C)C [Compound 1-8, 1-{4′-[4-(3-Isopropyl-3-methyl-ureido)-3-methyl-isoxazol-5-yl]-biphenyl-4-yl}-cyclopropanecarboxylic acid] | 1000 to 50000 |
| Cc1noc(-c2ccc(-c3ccc(C4(C(=O)O)CC4)cc3)cc2)c1NC(=O)N[C@H](C)c1ccccc1 [Compound 1-11, 1-(4′-{3-Methyl-4-[3-((R)-1-phenyl-ethyl)-ureido]-isoxazol-5-yl}-biphenyl-4-yl)-cyclopropanecarboxylic acid] | < 300 |
| Cc1noc(-c2ccc(-c3ccc(C4(C(=O)O)CC4)cc3)cc2)c1NC(=O)NCc1ccccc1F [Compound 1-12, 1-(4′-{4-[3-(2-Fluoro-benzyl)-ureido]-3-methyl-isoxazol-5-yl}-biphenyl-4-yl)-cyclopropanecarboxylic acid] | < 300 |
| Cc1noc(-c2ccc(-c3ccc(C4(C(=O)O)CC4)cc3)cc2)c1NC(=O)NCc1c(F)cccc1F [Compound 1-16, 1-(4′-{4-[3-(2,6-Difluoro-benzyl)-ureido]-3-methyl-isoxazol-5-yl}-biphenyl-4-yl)-cyclopropanecarboxylic acid] | 300 to 1000 |
| Cc1noc(-c2ccc(-c3ccc(C4(C(=O)O)CC4)cc3)cc2)c1NC(=O)C(C)Oc1ccccc1 (centres unmarked) [Compound 1-17, 1-{4′-[3-Methyl-4-(2-phenoxy-propionylamino)-isoxazol-5-yl]-biphenyl-4-yl}-cyclopropanecarboxylic acid] | 1000 to 50000 |
| Cc1noc(-c2ccc(-c3ccc(C4(C(=O)O)CC4)cc3)cc2)c1COC(=O)N[C@H](C)c1ccccc1 [Compound 1-19, 1-{4′-[3-Methyl-4-((R)-1-phenyl-ethylcarbamoyloxymethyl)-isoxazol-5-yl]-biphenyl-4-yl}-cyclopropanecarboxylic acid] | < 300 |
| Cc1noc(-c2ccc(-c3ccc(C4(C(=O)O)CC4)cc3)cc2)c1COC(=O)NCc1ccccc1 [Compound 1-21, 1-[4′-(4-Benzylcarbamoyloxymethyl-3-methyl-isoxazol-5-yl)-biphenyl-4-yl]-cyclopropanecarboxylic acid] | < 300 |
| Cc1noc(-c2ccc(-c3ccc(C4(C(=O)O)CC4)cc3)cc2)c1COC(=O)NC1CCCC1 [Compound 1-23, 1-[4′-(4-Cyclopentylcarbamoyloxymethyl-3-methyl-isoxazol-5-yl)-biphenyl-4-yl]-cyclopropanecarboxylic acid] | < 300 |
| Cc1noc(-c2ccc(-c3ccc(C4(C(=O)O)CC4)cc3)cc2)c1CNCC1CC1 [Compound 1-27, 1-(4′-{4-[(Cyclopropylmethyl-amino)-methyl]-3-methyl-isoxazol-5-yl}-biphenyl-4-yl)-cyclopropanecarboxylic acid] | 1000 to 50000 |
| Cc1noc(-c2ccc(-c3ccc(C4(C(=O)O)CC4)cc3)cc2)c1CNCc1ccccc1 [Compound 1-29, 1-{4′-[4-(Benzylamino-methyl)-3-methyl-isoxazol-5-yl]-biphenyl-4-yl}-cyclopropanecarboxylic acid] | 1000 to 50000 |
| CC(=O)N(CCc1ccccc1)Cc1c(C)noc1-c1ccc(-c2ccc(C3(C(=O)O)CC3)cc2)cc1 [Compound 1-30, 1-(4′-{4-[(Acetyl-phenethyl-amino)-methyl]-3-methyl-isoxazol-5-yl}-biphenyl-4-yl)-cyclopropanecarboxylic acid] | < 300 |
| Cc1noc(-c2ccc(-c3ccc(C4(C(=O)O)CC4)cc3)cc2)c1C=CCCc1ccccc1 [Compound 1-31, 1-{4′-[3-Methyl-4-(4-phenyl-but-1-enyl)-isoxazol-5-yl]-biphenyl-4-yl}-cyclopropanecarboxylic acid] | < 300 |
| Cc1noc(-c2ccc(-c3ccc(C4(C(=O)O)CC4)cc3)cc2)c1CC(=O)NC(C)c1ccccc1 (centres unmarked) [Compound 1-33, 1-(4′-{3-Methyl-4-[(1-phenyl-ethylcarbamoyl)-methyl]-isoxazol-5-yl}-biphenyl-4-yl)-cyclopropanecarboxylic acid] | < 300 |

Results, then the compound that gave them:

| IC50 [nM] | Structure (SMILES) |
| --- | --- |
| 1000 to 50000 | Cc1noc(-c2ccc(-c3ccc(C4(C(=O)O)CC4)cc3)cc2)c1CCC(=O)N(C)C(C)c1ccccc1 (stereo in doubt) [Compound 1-117, 1-[4′-(3-Methyl-4-{2-[methyl-((R)-1-phenyl-ethyl)-carbamoyl]-ethyl}-isoxazol-5-yl)-biphenyl-4-yl]-cyclopropanecarboxylic acid] |
| 1000 to 50000 | Cc1noc(-c2ccc(-c3cccc(C(=O)O)c3)cc2)c1NC(=O)CCc1ccccc1 [Compound 1-1, 4′-[3-Methyl-4-(3-phenyl-propionylamino)-isoxazol-5-yl]-biphenyl-3-carboxylic acid] |
| 1000 to 50000 | Cc1noc(-c2ccc(-c3cccc(C(=O)O)c3)cc2)c1NC(=O)NCc1ccccc1 [Compound 1-2, 4′-[4-(3-Benzyl-ureido)-3-methyl-isoxazol-5-yl]-biphenyl-3-carboxylic acid] |
| 1000 to 50000 | Cc1noc(-c2ccc(-c3ccc(C4(C(=O)O)CC4)cc3)cc2)c1NC(=O)CCc1ccccc1 [Compound 1-4, 1-{4′-[3-Methyl-4-(3-phenyl-propionylamino)-isoxazol-5-yl]-biphenyl-4-yl}-cyclopropanecarboxylic acid] |
| < 300 | Cc1noc(-c2ccc(-c3ccc(C4(C(=O)O)CC4)cc3)cc2)c1NC(=O)NCc1ccccc1 [Compound 1-6, 1-{4′-[4-(3-Benzyl-ureido)-3-methyl-isoxazol-5-yl]-biphenyl-4-yl}-cyclopropanecarboxylic acid] |
| < 300 | Cc1noc(-c2ccc(-c3ccc(C4(C(=O)O)CC4)cc3)cc2)c1NC(=O)NC(C)(C)C [Compound 1-7, 1-{4′-[4-(3-tert-Butyl-ureido)-3-methyl-isoxazol-5-yl]-biphenyl-4-yl}-cyclopropanecarboxylic acid] |
| 1000 to 50000 | Cc1noc(-c2ccc(-c3ccc(C4(C(=O)O)CC4)cc3)cc2)c1NC(=O)N(C)[C@H](C)c1ccccc1 [Compound 1-9, 1-(4′-{3-Methyl-4-[3-methyl-3-((R)-1-phenyl-ethyl)-ureido]-isoxazol-5-yl}-biphenyl-4-yl)-cyclopropanecarboxylic acid] |
| > 50000 | Cc1noc(-c2ccc(-c3ccc(C4(C(=O)O)CC4)cc3)cc2)c1NC(=O)NCC(F)(F)F [Compound 1-13, 1-(4′-{3-Methyl-4-[3-(2,2,2-trifluoro-ethyl)-ureido]-isoxazol-5-yl}-biphenyl-4-yl)-cyclopropanecarboxylic acid] |
| 300 to 1000 | Cc1noc(-c2ccc(-c3ccc(C4(C(=O)O)CC4)cc3)cc2)c1NS(=O)(=O)Cc1ccccc1Cl [Compound 1-14, 1-{4′-[4-(2-Chloro-phenylmethanesulfonylamino)-3-methyl-isoxazol-5-yl]-biphenyl-4-yl}-cyclopropanecarboxylic acid] |
| 1000 to 50000 | Cc1noc(-c2ccc(-c3ccc(C4(C(=O)O)CC4)cc3)cc2)c1NC(=O)NCc1cc(C(F)(F)F)ccc1F [Compound 1-15, 1-(4′-{4-[3-(2-Fluoro-5-trifluoromethyl-benzyl)-ureido]-3-methyl-isoxazol-5-yl}-biphenyl-4-yl)-cyclopropanecarboxylic acid] |
| 1000 to 50000 | Cc1noc(-c2ccc(-c3ccc(C4(C(=O)O)CC4)cc3)cc2)c1NC(=O)NS(=O)(=O)c1ccccc1 [Compound 1-18, 1-{4′-[4-(3-Benzenesulfonyl-ureido)-3-methyl-isoxazol-5-yl]-biphenyl-4-yl}-cyclopropanecarboxylic acid] |
| 1000 to 50000 | Cc1noc(-c2ccc(-c3ccc(C4(C(=O)O)CC4)cc3)cc2)c1COC(=O)N[C@@H](C)c1ccccc1 [Compound 1-22, 1-{4′-[3-Methyl-4-((S)-1-phenyl-ethylcarbamoyloxymethyl)-isoxazol-5-yl]-biphenyl-4-yl}-cyclopropanecarboxylic acid] |
| > 50000 | Cc1noc(-c2ccc(-c3ccc(C4(C(=O)O)CC4)cc3)cc2)c1CNCC1CCCCC1 [Compound 1-28, 1-(4′-{4-[(Cyclohexylmethyl-amino)-methyl]-3-methyl-isoxazol-5-yl}-biphenyl-4-yl)-cyclopropanecarboxylic acid] |
